Series [1] concerns the target T1, E. coli β-galactosidase (LacZ) (Escherichia coli, UniProt P00722). The note with it: Huang, 1991, cited from earlier work.
Series [2] deals with T1, E. coli β-galactosidase (LacZ). The class given is biochemical.
Description: In the enzyme inhibition assay, the rate of catalysis is determined by using a non-fluorescent substrate for LacZ, fluorescein mono-β-D-galactoside (FMG) (FMG), and measuring the appearance of the fluorescent product, fluorescein (excitation 488 nm, emission 514 nm). All components of the LacZ inhibition assay are dissolved in assay buffer (10 mm MgCl2, 50 mM NaCl, 1 mM DTT, 100 μg/ml BSA, 10 mM Tris-HCl, pH 7.9.
Leading into each droplet forming module (FIG. 15) are two Teflon tubes leading from syringe pumps. The channels leading from each tube merge to create a single flow before entering the droplet forming module. The two syringes feeding into the first droplet forming module contain, (a) 50 μM PETG in assay buffer, and (b), assay buffer. The two syringes feeding into the second droplet forming module contain, (c) 100 nM LacZ in assay buffer and (d), assay buffer. The two syringes feeding into the third droplet forming module contain, (e) 5 mM FMG in assay buffer, and (f), assay buffer. The final concentration of each component in each droplet is independently controllable by adjusting relative flow rates of each component and buffer solution while maintaining a constant combined flow rate from both syringes.
The first droplet fusion mixes the inhibitor (PETG) with the enzyme (LacZ). After the combined droplet has spent two minutes in a delay line it is fused with a third droplet containing the fluorogenic enzyme substrate (FMG). Finally, after all the components are mixed the reaction is observed by measuring fluorescence of individual droplets or by integrating fluorescent light from droplets with the same concentration of each component during 10-second exposure time at multiple points in the second 10 min long delay line. Each fluorescence intensity value at different positions is proportional to the amount of product at different reaction times. Rate of product formation is linear during initial reaction time and initial rate (ν) can be determined from linear fitting. […]
The nature of series [3]: Compartmentalisation of small molecules in water-in-fluorocarbon emulsions (epifluorescence microscopy). Format: physicochemical. Conditions: water-in-perfluorooctyl bromide emulsions mixed by vortexing, imaged after 24 hours. The protocol: FIG. 19. Compartmentalisation of small molecules in water-in-fluorocarbon emulsions. Water-in-perfluorooctyl bromide emulsions were made containing texas red (1 mM) and calcein ([…] in the aqueous phase by homogenisation as described in example 9. The two emulsions were mixed by vortexing and imaged by epifluorescence microscopy after 24 hours. No exchange of texas-red (red fluorescence) and calcein (green fluorescence) between microdroplets could be observed.
Water-in-fluorocarbon emulsions containing 95% (v/v) perfluorooctyl bromide, 5% (v/v) phosphate buffered saline containing the molecule of interest in solution, and 2% (w/v) C8F17C11H22OP(O)[N(CH2CH2)2O]2 (F8H1DMP) as surfactant were formed essentially as (Sadtler et al., 1996) by extrusion (15 times) through 14 μm filters (Osmonics) or by homogenising for 5 min at 25,000 r.p.m. using an Ultra-Turrax T8 Homogenizer (IKA) with a 5 mm dispersing tool. Emulsions were made containing a series of small fluorescent molecules dissolved in the aqueous phase at concentrations from […] to 2 mM. These molecules, including calcein, texas red, fluorescein, coumarin 102, 7-hydroxycoumarin-3-carboxylic acid and 7-diethylamino-4-methyl coumarin (coumarin 1), had molecular weights from 203 to 625 Da and Log P values—calculated using SRC's Log Kow/KowWin Program (Meylan and Howard, 1995)—ranging from −0.49 to 4.09. […]

A further series addresses T2, PTP1B (Homo sapiens, UniProt P18031).
T2 sequence (P18031 1-435): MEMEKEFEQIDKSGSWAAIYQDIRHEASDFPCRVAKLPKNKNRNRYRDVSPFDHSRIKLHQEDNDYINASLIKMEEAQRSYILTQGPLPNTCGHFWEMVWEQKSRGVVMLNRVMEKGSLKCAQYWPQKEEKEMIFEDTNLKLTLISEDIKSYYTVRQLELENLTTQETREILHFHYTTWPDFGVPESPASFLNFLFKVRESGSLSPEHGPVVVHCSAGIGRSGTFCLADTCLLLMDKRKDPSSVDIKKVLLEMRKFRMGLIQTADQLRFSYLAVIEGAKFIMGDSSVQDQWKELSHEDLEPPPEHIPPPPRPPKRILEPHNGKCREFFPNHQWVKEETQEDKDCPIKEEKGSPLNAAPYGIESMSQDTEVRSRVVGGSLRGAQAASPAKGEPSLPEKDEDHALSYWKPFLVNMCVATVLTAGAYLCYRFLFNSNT
The note with it: Johnson et al., 2002; cited from earlier work.

For series [4], the target named is T3, human recombinant PTP1B, residues 1-322 (Homo sapiens, UniProt P18031).
T3 construct: human recombinant PTP1B, residues 1-322; purchased Biomol Research Laboratories, Inc
T3 sequence (P18031 1-322): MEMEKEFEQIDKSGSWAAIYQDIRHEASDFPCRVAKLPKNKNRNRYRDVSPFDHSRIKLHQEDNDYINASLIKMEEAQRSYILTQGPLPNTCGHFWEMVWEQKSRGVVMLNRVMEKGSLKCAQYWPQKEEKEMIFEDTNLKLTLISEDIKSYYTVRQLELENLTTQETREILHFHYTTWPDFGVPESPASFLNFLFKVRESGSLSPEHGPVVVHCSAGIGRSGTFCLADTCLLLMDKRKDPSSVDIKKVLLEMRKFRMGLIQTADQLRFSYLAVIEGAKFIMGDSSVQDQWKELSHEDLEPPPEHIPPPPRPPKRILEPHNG
Kind of series: Screening for PTP1B inhibitors using microcapsules in a microfluidic system (DiFMUP fluorescence). The class given is biochemical. Conditions: 100 μM compound solution, PTP1B 50 mU/ml, substrate DiFMUP, excitation/emission 358/452 nm. The protocol: All water-soluble reagents are dissolved in (25 mM HEPES, pH 7.4, 125 mM NaCl, 1 mM EDTA), a buffer compatible with PTP1B activity. […] Each microcapsule containing target enzyme is fused with a microcapsule containing compound 2 or a microcapsule containing hydrocinnamic acid. Microcapsules containing either compound 2 or hydrocinnamic acid can be formed by switching between injection with syringes containing compound 2 and hydrocinnamic acid.
After microcapsule fusion the contents are rapidly mixed. After this point the microcapsules are run for up to 1 min through a 60 cm long microchannel (to allow inhibitor binding). This microchannel is then merged with a second microchannel containing, aqueous microcapsules containing the fluorogenic PTP1B substrate 6,8-difluoro-4-methylumbelliferyl phosphate (DiFMUP) (Molecular Probes) in 25 mM HEPES, pH 7.4, 125 mM NaCl, 1 mM EDTA and the microcapsules fused pairwise. The fused microcapsules are then run for up to 2 min through a 60 cm long microchannel. Fluorescence of the microcapsules due to production of DiFMU (excitation/emmission maxima 358/452 nm; blue fluorescence) is measured.

Setting [5] is: 30 nM LacZ, 0 to 13 μM PETG, 10 to 700 μM FMG.

We go through five compounds from US9498759B2, “Compartmentalized screening by microfluidic control” (President and Fellows of Harvard College, priority 2004, dated 2016).

For orientation: Km means the substrate concentration at which the rate is half of its maximum. As usually defined, the Ki is the dissociation constant of the complex between target and ligand, obtained from inhibition or displacement.

T1 sequence (P00722 2-1024): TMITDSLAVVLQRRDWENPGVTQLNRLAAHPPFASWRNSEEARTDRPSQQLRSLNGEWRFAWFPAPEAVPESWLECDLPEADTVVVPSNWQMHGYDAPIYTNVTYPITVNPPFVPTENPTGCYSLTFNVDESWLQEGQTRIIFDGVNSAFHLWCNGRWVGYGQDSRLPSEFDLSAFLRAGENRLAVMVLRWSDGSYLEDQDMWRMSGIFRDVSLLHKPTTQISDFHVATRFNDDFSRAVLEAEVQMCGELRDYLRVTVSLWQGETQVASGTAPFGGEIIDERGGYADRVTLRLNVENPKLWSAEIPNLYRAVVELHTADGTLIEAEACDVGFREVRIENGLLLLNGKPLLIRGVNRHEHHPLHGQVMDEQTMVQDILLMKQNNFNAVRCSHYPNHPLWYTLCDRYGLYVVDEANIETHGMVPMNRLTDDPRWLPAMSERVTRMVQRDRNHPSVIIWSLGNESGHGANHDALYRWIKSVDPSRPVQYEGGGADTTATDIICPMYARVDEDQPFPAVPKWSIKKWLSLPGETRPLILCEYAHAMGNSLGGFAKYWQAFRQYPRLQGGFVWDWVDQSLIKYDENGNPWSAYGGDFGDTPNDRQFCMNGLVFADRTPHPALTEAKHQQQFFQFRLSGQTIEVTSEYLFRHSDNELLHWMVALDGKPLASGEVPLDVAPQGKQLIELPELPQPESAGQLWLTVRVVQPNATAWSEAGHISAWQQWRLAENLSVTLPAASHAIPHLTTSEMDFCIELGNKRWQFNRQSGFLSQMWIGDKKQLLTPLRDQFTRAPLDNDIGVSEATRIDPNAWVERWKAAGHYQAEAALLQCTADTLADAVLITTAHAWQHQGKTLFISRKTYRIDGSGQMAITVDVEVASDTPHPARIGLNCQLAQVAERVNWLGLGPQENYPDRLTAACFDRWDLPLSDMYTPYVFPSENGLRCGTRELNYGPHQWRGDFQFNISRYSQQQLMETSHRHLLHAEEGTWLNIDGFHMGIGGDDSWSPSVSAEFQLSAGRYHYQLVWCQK

In the case of `O=C1OC2(c3ccc(O)cc3Oc3cc(O[C@@H]4O[C@H](CO)[C@H](O)[C@H](O)[C@H]4O)ccc32)c2ccccc21` (stereo partly drawn) [FMG, fluorescein mono-β-D-galactoside], the Km in series [1] (read-out: KM of FMG for LacZ, previously published value) is 118 µM. The “KM of FMG for LacZ determined in fused microcapsules, deviation from previously published value” in series [2] (setting [5]) is reported as ≤ 20%.

For `OCC1OC(SCCc2ccccc2)C(O)C(O)C1O` [PETG, phenylethyl β-D-thiogalactopyranoside], in series [1] (read-out: Ki of PETG for LacZ, previously published value), the Ki is 980 nM. In addition, the “Ki of PETG for LacZ determined in fused microcapsules” value in series [2] (setting [5]) is “within the range of the previously published value”. The Mode of inhibition result in series [2] (Lineweaver-Burk plot, same y-intercept at different PETG concentrations) is “competitive”.

As to `O=C(O)CN(CC(=O)O)Cc1cc2c(cc1O)Oc1cc(O)c(CN(CC(=O)O)CC(=O)O)cc1C21OC(=O)c2ccccc21` [calcein], in series [3], the Exchange between microdroplets/compartments result is on record as “No exchange”.

For the compound `O=C(O)CCc1ccccc1` [hydrocinnamic acid], the “PTP1B inhibitor status / relative potency” value on PTP1B was “not a PTP1B inhibitor”. The “Fluorescence of the microcapsules due to production of DiFMU (blue fluorescence)” value in series [4] is given as “exhibiting blue fluorescence”.

Consider texas red, for which the Exchange between microdroplets/compartments entry in series [3] was “No exchange”.
